In ChEMBL document CHEMBL5230096, “A comprehensive insight on the recent development of Cyclic Dependent Kinase inhibitors as anticancer agents” (Eur J Med Chem, 2020):

Columns and labels:
HCT-116 = assay: Anticancer activity against human HCT-116 cells assessed as reduction in cell viability incubated for 48 hrs by MTT assay; format: functional, cell-based; settings: HCT-116, 48 h
MCF7 [1] = assay: Anticancer activity against human MCF7 cells assessed as reduction in cell viability incubated for 48 hrs by MTT assay; format: functional, cell-based; settings: MCF7, 48 h
[2] = molecular target: Cyclin-dependent kinase 2/cyclin E1 (Homo sapiens, UniProt P24941); assay: Inhibition of CDK2/cyclin E1 (unknown origin) expressed in Sf9 cells using histone H1 as substrate in presence of ATP by microplate reader analysis
MCF7 [3] = assay: Antiproliferative activity against human MCF7 cells assessed as reduction in cell proliferation incubated for 3 days by calcein AM staining based fluorescent analysis; format: functional; settings: MCF7, 72 h
K562 = assay: Antiproliferative activity against human K562 cells assessed as reduction in cell proliferation incubated for 3 days by calcein AM staining based fluorescent analysis; format: functional; settings: K562, 72 h
[4] = system: Panel NCI-60 (60 carcinoma cell lines); assay: Antiproliferative activity against human Panel NCI-60 (60 carcinoma cell lines) cells assessed as inhibition of cell growth at 0.00001 M incubated for 48 hrs by sulforhodamine B assay; format: functional; parameters: scale not given: the % may be the effect or the level left; settings: dose 10 µM
MCF7 [5] = assay: Antiproliferative activity against human MCF7 cells assessed as reduction in cell proliferation incubated for 48 hrs by Sulfo-Rhodamine-B stain (SRB) assay; format: functional, cell-based; settings: MCF7, 48 h
[6] = molecular target: T1, Cyclin-dependent kinase 2 (Homo sapiens, UniProt P24941); assay: Inhibition of human CDK2 using TMB as substrate preincubated for 210 mins followed by substrate addition and measured after 15 to 25 mins by spectrophotometric analysis
MCF7 [7] = assay: Antiproliferative activity against human MCF7 cells assessed as reduction in cell viability by MTT assay; format: functional, cell-based
[8] = molecular target: T2, CDK2/Cyclin A2 (Homo sapiens) (UniProt P24941+P20248); assay: Inhibition of CDK2/Cyclin A2 (unknown origin) at 10 uM by Kinase-Glo Plus luminescence kinase assay; format: protein-complex assay
[9] = molecular target: Cyclin-dependent kinase 2/cyclin E (Homo sapiens, UniProt P24941); assay: Inhibition of CDK2/Cyclin E (unknown origin) expressed in baculovirus infected Sf9 cells using histone H1 as substrate in presence of gamma32P-ATP by scintillation counter analysis
Histone deacetylase = assay: Inhibition of HDAC (unknown origin); format: protein assay, Homo sapiens
B16-F10 = assay: Antiproliferative activity against mouse B16-F10 cells assessed reduction in cell proliferation; format: functional, cell-based
[10] = molecular target: T1, Cyclin-dependent kinase 2
Description: Inhibition of CDK2 (unknown origin)

MCF7 [11] = assay: Antiproliferative activity against human MCF7 cells assessed reduction in cell proliferation; format: functional, cell-based
CDK2/Cyclin A2 [12] = molecular target: T3, CDK2/Cyclin A2 (Homo sapiens, UniProt P24941); assay: Inhibition of CDK2/cyclin A2 (unknown origin) using histone as substrate in presence of ATP by luminescent ADP detection assay; format: protein-complex assay
[13] = system: Panel NCI-60 (60 carcinoma cell lines); assay: Antiproliferative activity against human Panel NCI-60 (60 carcinoma cell lines) assessed as reduction in cell viability at 10 uM; format: functional
CDK2/Cyclin A2 [14] = molecular target: T3, CDK2/Cyclin A2; assay: Inhibition of CDK2/Cyclin A2 (unknown origin) incubated for 40 mins in presence of ATP by Kinase-Glo Plus luminescence kinase assay; format: protein-complex assay
[15] = molecular target: T2, CDK2/Cyclin A2 (Homo sapiens); assay: Inhibition of CDK2/Cyclin A2 (unknown origin) at 10 uM incubated for 40 mins in presence of ATP by Kinase-Glo Plus luminescence kinase assay; format: protein-complex assay
[16] = system: Human immunodeficiency virus 1; assay: Antiviral activity against HIV1; format: functional, organism-based
MCF7 [17] = assay: Cytotoxicity against human MCF7 cells assessed as reduction in cell viability by MTT assay; format: functional, cell-based
HepG2 = assay: Antiproliferative activity against human HepG2 cells assessed as reduction in cell viability by MTT assay; format: functional, cell-based
A549 = assay: Antiproliferative activity against human A549 cells assessed as reduction in cell viability by MTT assay; format: functional, cell-based
Caco-2 = assay: Antiproliferative activity against human Caco-2 cells assessed as reduction in cell viability by MTT assay; format: functional, cell-based
HeLa = assay: Antiproliferative activity against human HeLa cells assessed as reduction in cell viability incubated for 3 days by MTT assay; format: functional, cell-based; settings: 72 h
CDK9/cyclin T1 = CDK9/cyclin T1 (Homo sapiens, UniProt P50750); assay: Inhibition of CDK9/cyclin T1 (unknown origin) assessed as inhibition constant; format: protein-complex assay
Sequence of CDK9/cyclin T1 (O60563 whole entry): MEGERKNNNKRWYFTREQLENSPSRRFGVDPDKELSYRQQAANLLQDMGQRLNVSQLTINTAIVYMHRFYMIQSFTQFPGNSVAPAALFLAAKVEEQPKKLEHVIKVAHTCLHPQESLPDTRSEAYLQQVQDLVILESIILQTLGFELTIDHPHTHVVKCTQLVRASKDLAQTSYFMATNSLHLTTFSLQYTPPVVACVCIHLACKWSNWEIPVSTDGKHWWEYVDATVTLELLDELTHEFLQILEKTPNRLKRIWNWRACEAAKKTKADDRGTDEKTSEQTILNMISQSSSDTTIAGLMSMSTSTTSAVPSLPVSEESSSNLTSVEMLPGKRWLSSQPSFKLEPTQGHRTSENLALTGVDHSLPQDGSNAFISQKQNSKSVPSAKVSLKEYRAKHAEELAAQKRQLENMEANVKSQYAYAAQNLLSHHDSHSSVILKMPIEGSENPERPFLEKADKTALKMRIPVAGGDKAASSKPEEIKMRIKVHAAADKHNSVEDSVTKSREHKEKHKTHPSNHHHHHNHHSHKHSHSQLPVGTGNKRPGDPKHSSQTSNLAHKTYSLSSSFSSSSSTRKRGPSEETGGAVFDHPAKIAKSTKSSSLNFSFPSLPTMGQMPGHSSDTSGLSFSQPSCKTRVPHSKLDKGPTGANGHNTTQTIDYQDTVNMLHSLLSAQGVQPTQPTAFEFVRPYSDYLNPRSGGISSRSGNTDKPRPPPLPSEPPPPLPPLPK
Sequence of CDK9/cyclin T1 (P50750 whole entry): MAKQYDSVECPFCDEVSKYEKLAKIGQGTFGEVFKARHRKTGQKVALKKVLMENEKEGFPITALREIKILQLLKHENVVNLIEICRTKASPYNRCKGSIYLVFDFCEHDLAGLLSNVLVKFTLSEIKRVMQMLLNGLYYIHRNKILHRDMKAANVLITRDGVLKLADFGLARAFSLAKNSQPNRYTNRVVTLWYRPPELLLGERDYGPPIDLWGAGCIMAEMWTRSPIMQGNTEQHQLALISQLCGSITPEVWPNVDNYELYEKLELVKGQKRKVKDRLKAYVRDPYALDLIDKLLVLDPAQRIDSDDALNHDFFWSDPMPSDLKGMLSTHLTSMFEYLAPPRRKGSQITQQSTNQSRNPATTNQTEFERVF

[18] = molecular target: T4, Protein cereblon/Cyclin-dependent kinase 9 (Homo sapiens) (UniProt P50750+Q96SW2); assay: Protac activity at CRBN/CDK9 in human HCT-116 cells assessed as induction of CDK9 degradation at 20 uM incubated for 6 hrs by Western blot analysis; format: cell-based
T4 sequence (P50750 whole entry, looked up): as the sequence (P50750 whole entry) above
T4 sequence (Q96SW2 whole entry, looked up): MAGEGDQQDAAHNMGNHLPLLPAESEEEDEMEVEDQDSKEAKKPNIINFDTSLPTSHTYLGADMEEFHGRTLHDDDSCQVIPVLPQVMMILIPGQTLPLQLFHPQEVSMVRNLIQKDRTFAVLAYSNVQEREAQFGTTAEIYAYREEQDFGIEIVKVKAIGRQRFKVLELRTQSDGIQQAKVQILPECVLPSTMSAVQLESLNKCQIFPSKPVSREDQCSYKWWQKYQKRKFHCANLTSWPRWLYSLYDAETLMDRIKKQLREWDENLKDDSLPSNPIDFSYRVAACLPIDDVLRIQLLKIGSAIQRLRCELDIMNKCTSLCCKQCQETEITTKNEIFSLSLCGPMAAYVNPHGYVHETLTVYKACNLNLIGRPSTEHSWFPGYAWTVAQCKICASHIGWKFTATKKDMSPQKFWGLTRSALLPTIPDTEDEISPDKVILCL

[19] = molecular target: T4, Protein cereblon/Cyclin-dependent kinase 9 (Homo sapiens); assay: Protac activity at CRBN/CDK9 in human HCT-116 cells assessed as induction of CDK9 degradation at 10 uM incubated for 6 hrs by Western blot analysis; format: cell-based

Nc1ccc(-c2nc3ncccc3[nH]2)cc1 was tested, and the IC50 (HCT-116) was 3.06 µM and the IC50 (MCF7 [1]) was 710 nM.
With CCCCCSc1nc(Nc2ccccc2Cl)c2cn[nH]c2n1 the IC50 [2] was 5.1 µM, the IC50 (MCF7 [3]) was 19.2 µM and the IC50 (K562) was 19.9 µM.
With Cc1ccc(-n2cc(-c3ccccc3)c3c(SCC(=O)N/N=C\c4ccccc4[N+](=O)[O-])ncnc32)cc1 the Activity [4] was <50%.
Molecule Cc1ccc(S(=O)(=O)Nc2ccc(-c3ccnc(Nc4ccc(S(=O)(=O)Nc5nccc(C)n5)cc4)c3C#N)cc2)cc1 has an IC50 (MCF7 [5]) of 18.3 µM and an IC50 [6] of 1790 nM.
Molecule O=C1NN=C(Nc2ccccc2)/C1=C/Nc1ccc(O)cc1 has an IC50 (MCF7 [7]) of 23.3 µM and an inhibition [8] of 60%.
Molecule O=c1[nH]cc(-c2ccccc2Cl)c2nccn12 has an IC50 [9] of 1.5 µM.
With COc1ccc(-n2c(-c3ccccc3)c(-c3ccccc3)c3c(SCC(=O)N/N=C\c4ccccc4[N+](=O)[O-])ncnc32)cc1 the Activity [4] was <50%.
For O=C(CCCn1cc(CNC2CC2)c(-c2ccccc2)n1)NO, the IC50 (Histone deacetylase) was 2.76 µM, the IC50 (B16-F10) was 2530 nM and the IC50 [10] was 3.7 µM. The IC50 (MCF7 [11]) was 2960 nM.
For Cc1ccc(-n2cc(-c3ccccc3)c3c(SCC(=O)N/N=C\c4ccc(N(C)C)cc4)ncnc32)cc1, the Activity [4] was <50%.
In the case of O=C(Nc1ccc(O)cc1)c1cnn(-c2cc(NCc3ccccc3)ncn2)c1, the IC50 (CDK2/Cyclin A2 [12]) is reported as < 20 nM.
For CCOC(=O)c1cnn2c(-c3ccc(Cl)cc3)nc(NCc3ccccc3)nc12, the inhibition at 10 µM [13] was 41.8%, the IC50 (CDK2/Cyclin A2 [14]) was 2090 nM and the inhibition [15] was 82.4%.
Molecule CCCCCSc1nc(OC(=O)c2cc3ccccc3o2)c2cn[nH]c2n1 has an IC50 [2] of 8.8 µM, an IC50 (MCF7 [3]) of 18.9 µM and an IC50 (K562) of 19.8 µM.
For CCCCCSc1nc(OC(=O)CC(C)(C)C)c2cn[nH]c2n1, the IC50 [2] was 16.9 µM, the IC50 (MCF7 [3]) was 18.9 µM and the IC50 (K562) was 19.8 µM.
Molecule O=C(c1ccccc1)N1C(=O)C(C2C(=O)N(C(=O)c3ccccc3)C(=S)N(c3ccc(F)cc3)C2=O)C(=O)N(c2ccc(F)cc2)C1=S (stereo not given) has an IC50 [10] of 5.2 µM and an IC50 [16] of 2.7 µM.
O=C(Oc1nc(SCCc2ccccc2)nc2[nH]ncc12)c1cc2ccccc2o1 gave an IC50 (MCF7 [3]) of 18.9 µM and an IC50 (K562) of 19.8 µM.
Molecule O=C(CCn1cc(COC(=O)c2c[nH]c3ccccc23)nn1)NC(CC(=O)c1cc2ccccc2oc1=O)c1ccccc1Cl (stereo not given) has an IC50 (MCF7 [17]) of 17.5 µM.
Cc1ccc(S(=O)(=O)Nc2ccc(-c3ccnc(Nc4ccc(S(=O)(=O)Nc5cc(C)no5)cc4)c3C#N)cc2)cc1 showed an IC50 (MCF7 [5]) of 20.4 µM.
For CCOC(=O)C1=C(C)n2nc(Nc3ccccc3)c(C(N)=O)c2NC1c1ccc(F)cc1 (stereo not given), the IC50 (HepG2) was 24.2 µM, the IC50 (MCF7 [7]) was 14.1 µM and the IC50 (A549) was 30 µM. The IC50 (Caco-2) was 29.3 µM.
With O=C1CC(=O)N(c2ccc(F)cc2)C(=S)N1C(=O)c1ccccc1 the IC50 [10] was 4.5 µM.
O=C(Nc1ccc(F)cc1)c1cnn(-c2cc(NCc3ccccc3)ncn2)c1 was tested, and the IC50 (CDK2/Cyclin A2 [12]) was < 20 nM.
For O=C1CC(=O)N(c2ccc(S(=O)(=O)Nc3nccs3)cc2)C(=S)N1C(=O)c1ccccc1, the IC50 [16] was 4.5 µM.
C[C@@H](CO)Nc1nc(N)c(N=O)c(OCC2CCCCC2)n1 was tested, and the IC50 [10] was 0.16 µM.
Molecule COc1cccc2c1C(=O)c1c(O)c3c(c(O)c1C2=O)C[C@@](O)(C(=O)CO)C[C@@H]3O[C@H]1C[C@H](N)[C@H](O)[C@H](C)O1 [DOXORUBICIN] has an IC50 (HeLa) of 1110 nM.
Molecule CN(C)c1ccc(-c2cc(-c3c(O)c4ccccc4oc3=O)nc(N)c2C#N)cc1 has a Ki (CDK9/cyclin T1) of 3.26 nM.
With COc1ccc(-n2c(-c3ccccc3)c(-c3ccccc3)c3c(SCC(=O)N/N=C\c4ccc(N(C)C)cc4)ncnc32)cc1 the Activity [4] was <50%.
C[C@@H](CO)Nc1nc(N)c(/[N+]([O-])=N/C#N)c(OCC2CCCCC2)n1 gave an IC50 [10] of 0.3 µM.
For COc1ccccc1/C=C/C(=C(C#N)C#N)c1ccc(NS(=O)(=O)c2ccc(C)cc2)cc1, the IC50 (MCF7 [5]) was 26.3 µM and the IC50 [6] was 2920 nM.
With O=C1CCC(N2C(=O)c3cccc(OCCCCCOc4ccc(CC(=O)Nc5cc(C6CCC6)[nH]n5)cc4)c3C2=O)C(=O)N1 (stereo not given) the Activity [18] was 65% and the Activity [19] was 56%.
Molecule O=c1[nH]cc(-c2cccc(F)c2F)c2nccn12 has an IC50 [9] of 4.8 µM.
